Measurements: PubChem BioAssay AID1963825 (Molecular Pharmacology Branch, DTP, NCI, 2024)
pIC50: −log10 of the molar value.

Assay: Anticancer human tumor 997537-175-T-J1-PDC patient-derived colon adenocarcinoma cell line growth inhibition [POLQ]
Conditions: 997537-175-T-J1-PDC complex spheroid viability, combination with POLQ inhibitors; for pIC50: curve of first compound; for viability, T/C: stronger effect = lower value
Method: Multicellular complex tumor spheroid response to Polymerase (POL) inhibitors (novobiocin, ART-558, RP6685) in combination with a variety of drugs and investigational agents in selected tumor cell lines
The POL inhibitors (novobiocin, ART-558, and RP6685) were evaluated both individually and in combination with standard of care and investigational anticancer small molecules within a complex spheroid model of solid tumors. . Complex spheroids include a stromal component modeled by human endothelial cells (HUVEC) and fibroblasts modeled by human mesenchymal stem cells (MSCs). The concentration ranges selected for each drug and investigational agent were based upon clinically achievable concentrations if the clinical Cmax of the agent was known.
Compounds. The drugs and investigational agents: novobiocin (NSC847541), ART-558 (NSC835418), RP-6685 (NSC848927), peposertib (NSC802822), ceralasertib (NSC780249), elimusertib (NSC800525), camonsertib (NSC841442), AZD-1390 (NSC803789), olaparib (NSC753686), talazoparib (NSC767125), rucaparib (NSC756644), sotorasib (NSC818433), MRTX-1133 (NSC836407), SN-38 (NSC673596), topotecan (NSC609699), epotoside (NSC141540), doxorubicin (NSC123127), gemcitabine (NSC613327), 5-fluorouracil (NSC19893), paclitaxel (NSC125973), vemurafenib (NSC761431), MSA-2 (NSC828583), SN-011 (NSC837082), adavosertib (NSC754352), prexasertib (NSC758257), carboplatin (NSC241240) and oxaliplatin (NSC266046), were obtained from the National Cancer Institute (NCI) Developmental Therapeutics Program Chemical Repository (21). The FDA-approved anticancer drug set is available from the Developmental Therapeutics Program at https://dtp.cancer.gov/organization/dscb/obtaining/. […] The stock solutions were prepared in dimethyl sulfoxide (DMSO, Sigma-Aldrich, St. Louis, MO, cat. D2650), except for the platinum compounds which were prepared in saline (Quality Biological, Gaithersburg, MD, cat. 114-055-101), at 800-fold the tested concentration and stored at -70 degrees C prior to their use. All drugs and investigational agents were tested over a range starting from a high concentration at or near the clinical Cmax and decreasing in half-log increments. If the clinical Cmax for an agent had not been determined, the highest concentration tested was 10 microM, except for SN-38, which was tested at a high concentration of 1 microM.
Cell Culture. All cells were maintained in an incubator at 37 degrees C and 5% CO2 with 95% humidity. The PDC lines were cultured according to standard operating procedures established by the NCI PDMR (https://pdmr.cancer.gov). Table 3 of the manuscript, lists the cell lines along with the number of the three cell types plated to form the mct-spheroids and media for tumor cell growth. After thawing, all PDC lines, except 997537-175-T-J1-PDC and 415267-285-R-J2-PDC, were cultured in Matrigel-coated flasks prepared with a working solution of 1X Ham's F-12 nutrient mix, without supplementation (Thermo Fisher Scientific, cat. 11765054), 100 U/mL penicillin-streptomycin (Thermo Fisher Scientific, cat. 15140122), and 2.5% Matrigel (Corning Inc., Corning, NY, cat. 354248) for the first three passages. The two PDC lines 997537-175-T-J1-PDC and 415267-285-R-J2-PDC were cultured on uncoated flasks. The 857933-349-R-J2-PDC line was cultured in 6C/Colon 1B media containing advanced DMEM/F-12 (Thermo Fisher Scientific, cat. 12634028), 10 mM HEPES (Thermo Fisher Scientific, cat. 15630080), 1X GlutaMAX supplement (Thermo Fisher Scientific, cat. 35050061), 0.1 mg/mL primocin (InvivoGen, San Diego, CA, cat. ant-pm-2), 10% defined fetal bovine serum, heat inactivated (HyClone Laboratories Inc., Logan, UT, cat. SH30070.03HI), 50% L-WRN conditioned media (ATCC, cat. CRL-3276), 1.25 mM N-Acetyl-L-cysteine (Sigma-Aldrich, cat. A9165), 10 mM nicotinamide (Sigma-Aldrich, cat. N0636), 1X B-27 supplement (Thermo Fisher Scientific, cat. 17504044), 1X N-2 supplement (Thermo Fisher Scientific, cat. […]
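Further: luminescence signal used as a surrogate for viable cells; spheroids exposed to drugs for seven days before readout.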

SMILES: C=CC(=O)N1CCN(c2nc(=O)n(-c3c(C)ccnc3C(C)C)c3nc(-c4c(O)cccc4F)c(F)cc23)C(C)C1 (configuration not stated) + Cc1cccc(N(C)C(=O)C2C(O)CCN2c2nc(C)cc(C(F)(F)F)c2C#N)c1
- pIC50 (second compound 0.0316 µM): < 5.00
- pIC50 (second compound 0.1 µM): < 5.00
- pIC50 (second compound 0.316 µM): < 5.00
- pIC50 (second compound 1 µM): < 5.00
- pIC50 (second compound 3.16 µM): < 5.00
- pIC50 (second compound 10 µM): < 5.00
- viability, T/C (second compound 0.0316 µM, first compound 0.0316 µM): 98.6%
- viability, T/C (second compound 0.0316 µM, first compound 0.1 µM): 96.7%
- viability, T/C (second compound 0.0316 µM, first compound 0.316 µM): 102%
- viability, T/C (second compound 0.0316 µM, first compound 1 µM): 106%
- viability, T/C (second compound 0.0316 µM, first compound 3.16 µM): 96.3%
- viability, T/C (second compound 0.0316 µM, first compound 10 µM): 103%
- viability, T/C (second compound 0.1 µM, first compound 0.0316 µM): 104%
- viability, T/C (second compound 0.1 µM, first compound 0.1 µM): 114%
- viability, T/C (second compound 0.1 µM, first compound 0.316 µM): 92.2%
- viability, T/C (second compound 0.1 µM, first compound 1 µM): 106%
- viability, T/C (second compound 0.1 µM, first compound 3.16 µM): 96%
- viability, T/C (second compound 0.1 µM, first compound 10 µM): 94.3%
- viability, T/C (second compound 0.316 µM, first compound 0.0316 µM): 101%
- viability, T/C (second compound 0.316 µM, first compound 0.1 µM): 113%
- viability, T/C (second compound 0.316 µM, first compound 0.316 µM): 108%
- viability, T/C (second compound 0.316 µM, first compound 1 µM): 99.5%
- viability, T/C (second compound 0.316 µM, first compound 3.16 µM): 102%
- viability, T/C (second compound 0.316 µM, first compound 10 µM): 104%
- viability, T/C (second compound 1 µM, first compound 0.0316 µM): 105%
- viability, T/C (second compound 1 µM, first compound 0.1 µM): 108%
- viability, T/C (second compound 1 µM, first compound 0.316 µM): 111%
- viability, T/C (second compound 1 µM, first compound 1 µM): 108%
- viability, T/C (second compound 1 µM, first compound 3.16 µM): 105%
- viability, T/C (second compound 1 µM, first compound 10 µM): 82.2%
- viability, T/C (second compound 3.16 µM, first compound 0.0316 µM): 103%
- viability, T/C (second compound 3.16 µM, first compound 0.1 µM): 99.3%
- viability, T/C (second compound 3.16 µM, first compound 0.316 µM): 98.6%
- viability, T/C (second compound 3.16 µM, first compound 1 µM): 98.7%
- viability, T/C (second compound 3.16 µM, first compound 3.16 µM): 93.9%
- viability, T/C (second compound 3.16 µM, first compound 10 µM): 99.3%
- viability, T/C (second compound 10 µM, first compound 0.0316 µM): 102%
- viability, T/C (second compound 10 µM, first compound 0.1 µM): 121%
- viability, T/C (second compound 10 µM, first compound 0.316 µM): 94.8%
- viability, T/C (second compound 10 µM, first compound 1 µM): 96.1%
- viability, T/C (second compound 10 µM, first compound 3.16 µM): 79.8%
- viability, T/C (second compound 10 µM, first compound 10 µM): 93.1%
